IC50 data for 27 compounds are collected here from US8895547B2, “Substituted phenyl-oxathiazine derivatives, method for producing them, drugs containing said compounds and the use thereof” (Sanofi, priority 2011, dated 2014).

What is called IC50 is the point on the concentration scale where inhibition reaches its midpoint. Higher therefore signals lower potency.

This test deals with T1, human 11β-HSD1 (Homo sapiens, UniProt P28845).
T1 construct: host or cells: microsome fraction
Kind of test: Enzymatic 11beta-HSD1 test (SPA-based detection). It is filed as biochemical. To be noted: human 11β-HSD1 microsome fraction, [1,2-3H]-cortisone, NADPH, 37° C. 1 hour. The procedure, abridged:
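Scintillation proximity detection: anti-cortisol antibody on SPA-PVT beads captured tritiated cortisol. The stop mix also contained 0.01 mM SSR110887 and was equilibrated 1 h at room temperature before counting. Cortisol came from [1,2-3H]-cortisone ([…]), turned over by human 11β-HSD1 microsomal protein (0.2 µg) with 0.25 mM NADPH in HEPES buffer, 37 °C, 1 h.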

T1 sequence (P28845 whole entry): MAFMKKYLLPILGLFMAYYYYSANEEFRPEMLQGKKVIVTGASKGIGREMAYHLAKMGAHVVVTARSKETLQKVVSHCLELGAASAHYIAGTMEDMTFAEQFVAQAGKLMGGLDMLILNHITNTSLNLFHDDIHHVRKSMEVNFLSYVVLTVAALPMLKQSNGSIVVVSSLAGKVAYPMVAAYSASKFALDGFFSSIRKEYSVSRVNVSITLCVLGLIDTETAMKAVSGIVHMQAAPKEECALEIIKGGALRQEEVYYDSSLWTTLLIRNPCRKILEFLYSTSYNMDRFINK

For `CC1(C)OC(N[C@@H](CCO)c2ccccc2F)=NS(=O)(=O)C1c1ccc(-c2cc(Cl)sc2Cl)cc1` (stereo partly drawn) [Example 92, (S)-3-{5-[4-(2,5-Dichlorothiophen-3-yl)-phenyl]-6,6-dimethyl-4,4-dioxo-5,6-dihydro-4H-4lambda6-[1,4,3]oxathiazin-2-ylamino}-3-(2-fluorophenyl)-propan-1-ol], the concentration for half-maximal inhibition (IC50) came out at 23 nM.
Consider `C[C@H](NC1=NS(=O)(=O)[C@@H](c2ccc(-c3cccc(C(N)=O)c3)cc2)C(C)(C)O1)c1ccccc1F` [Example 174, 4′-{(S)-2-[(S)-1-(2-fluorophenyl)-ethylamino]-6,6-dimethyl-4,4-dioxo-5,6-dihydro-4H-4lambda6-[1,4,3]oxathiazin-5-yl}-biphenyl-3-carboxamide], for which half-maximal inhibition (IC50) was put at 18 nM.
Regarding `CN1CCN(c2ccc(C3C(C)(C)OC(N[C@@H](CCO)c4ccccc4F)=NS3(=O)=O)cc2)CC1` (stereo partly drawn) [Example 109], 79 nM corresponded to half-maximal inhibition (IC50).
The compound `CC1(C)OC(N[C@@H](CCO)c2ccccc2F)=NS(=O)(=O)C1c1ccc(C2CCN(C(C)(C)C)CC2)cc1` (stereo partly drawn) [Example 151, (S)-3-{5-[4-(1-tert-Butyl-piperidin-4-yl)-phenyl]-6,6-dimethyl-4,4-dioxo-5,6-dihydro-4H-4lambda6-[1,4,3]oxathiazin-2-ylamino}-3-(2-fluorophenyl)-propan-1-ol] showed a concentration for half-maximal inhibition (IC50) of 34 nM.
Compound `C[C@H](NC1=NS(=O)(=O)[C@@H](c2ccc(-c3ccnc(C#N)c3)cc2)C(C)(C)O1)c1ccccc1F` [Example 186, 4-(4-{(S)-2-[(S)-1-(2-fluorophenyl)-ethylamino]-6,6-dimethyl-4,4-dioxo-5,6-dihydro-4H-4lambda6-[1,4,3]oxathiazin-5-yl}-phenyl)-pyridine-2-carbonitrile] came in with a half-maximal inhibitory concentration (IC50) of 11 nM.
With `CN(C)c1cccc(-c2ccc(C3C(C)(C)OC(N[C@@H](CCO)c4ccccc4F)=NS3(=O)=O)cc2)n1` (stereo partly drawn) [Example 126, (S)-3-{5-[4-(6-Dimethylamino-pyridin-2-yl)-phenyl]-6,6-dimethyl-4,4-dioxo-5,6-dihydro-4H-4lambda6-[1,4,3]oxathiazin-2-ylamino}-3-(2-fluorophenyl)-propan-1-ol], the midpoint of inhibition, the IC50, lay at 19 nM.
`CN1CCN(c2ccc(-c3ccc(C4C(C)(C)OC(N[C@@H](CCO)c5ccccc5F)=NS4(=O)=O)cc3)nc2)CC1` (stereo partly drawn) [Example 154, (S)-3-(6,6-Dimethyl-5-{4-[5-(4-methyl-piperazin-1-yl)-pyridin-2-yl]-phenyl}-4,4-dioxo-5,6-dihydro-4H-4lambda6-[1,4,3]oxathiazin-2-ylamino)-3-(2-fluoro-phenyl)-propan-1-ol] yielded a half-inhibitory concentration (IC50) of 13 nM.
With `C[C@H](NC1=NS(=O)(=O)C(C)(c2ccc(-c3ccccc3)cc2)C(C)(C)O1)c1ccccc1F` (stereo partly drawn) [Example 55, (5-Biphenyl-4-yl-5,6,6-trimethyl-4,4-dioxo-5,6-dihydro-4H-4lambda6-[1,4,3]oxathiazin-2-yl)-[(S)-1-(2-fluorophenyl)-ethyl]-amine], inhibition was half-maximal at 28 nM (IC50).
As for `C[C@H](NC1=NS(=O)(=O)C(c2ccc(-c3ccc(C(N)=O)cc3)cc2)C(C)(C)O1)c1ccccc1F` (stereo partly drawn) [Example 157, 4′-{2-[(S)-1-(2-fluorophenyl)-ethylamino]-6,6-dimethyl-4,4-dioxo-5,6-dihydro-4H-4lambda6-[1,4,3]oxathiazin-5-yl}-biphenyl-4-carboxamide], half-maximal inhibition (IC50) required 20 nM.
As for `CC1(C)OC(N[C@@H](CCO)c2ccccc2F)=NS(=O)(=O)[C@@H]1c1ccc(-c2ccnc(C(N)=O)c2)cc1` [Example 189, 4-(4-{(R)-2-[(S)-1-(2-fluorophenyl)-3-hydroxy-propylamino]-6,6-dimethyl-4,4-dioxo-5,6-dihydro-4H-4lambda6-[1,4,3]oxathiazin-5-yl}-phenyl)-pyridine-2-carboxamide], inhibition was half-maximal at 5 nM (IC50).
The same measure for `CC(C)(C)c1ccc(C2(C)C(C)(C)OC(N[C@@H](CCO)c3ccccc3)=NS2(=O)=O)cc1` (stereo partly drawn) [Compound 62, (S)-3-[5-(4-tert-Butylphenyl)-5,6,6-trimethyl-4,4-dioxo-5,6-dihydro-4H-4lambda6-[1,4,3]oxathiazin-2-ylamino]-3-phenylpropan-1-ol]: 47 nM; for `CC1(C)OC(N[C@@H](CCO)c2ccccc2F)=NS(=O)(=O)C1(C)c1cccc(N2CCN(S(C)(=O)=O)CC2)c1` (stereo partly drawn) [Example 44, (S)-3-(2-Fluorophenyl)-3-{5-[3-(4-methanesulfonyl-piperazin-1-yl)-phenyl]-5,6,6-trimethyl-4,4-dioxo-5,6-dihydro-4H-4lambda6-[1,4,3]oxathiazin-2-ylamino}-propan-1-ol]: 13 nM.
`CC1(C)OC(N[C@@H](CCO)c2ccccc2)=NS(=O)(=O)C1c1ccccc1Cl` (stereo partly drawn) [Example 15, (S)-3-[5-(2-Chlorophenyl)-6,6-dimethyl-4,4-dioxo-5,6-dihydro-4H-4lambda6-[1,4,3]oxathiazin-2-ylamino]-3-phenyl-propan-1-ol] came in with an IC50 of 11 nM.
Regarding `CC1(C)OC(N[C@@H](CCO)c2ccccc2F)=NS(=O)(=O)[C@H]1c1ccc(-c2ccc(C(N)=O)cc2)cc1` [Example 146, 4′-{(S)-2-[(S)-1-(2-fluorophenyl)-3-hydroxy-propylamino]-6,6-dimethyl-4,4-dioxo-5,6-dihydro-4H-4lambda6-[1,4,3]oxathiazin-5-yl}-biphenyl-4-carboxamide], the half-maximal inhibitory concentration (IC50) was determined as 8 nM.
As for `C[C@H](NC1=NS(=O)(=O)C(C)(c2ccccc2)C(C)(C)O1)c1ccccc1F` (stereo partly drawn) [Compound 57, [(S)-1-(2-Fluorophenyl)ethyl]-(5,6,6-trimethyl-4,4-dioxo-5-phenyl-5,6-dihydro-4H-4lambda6-[1,4,3]oxathiazin-2-yl)amine, stereomer 2], the IC50 was determined as 7 nM.
In turn, `CC1(C)OC(N[C@@H](CCO)c2ccccc2F)=NS(=O)(=O)C1(C)c1cccc(-c2ccccc2)c1` (single isomer, unassigned) [Example 74] returned a 50% inhibitory concentration (IC50) of 12 nM.
Compound `CC(=O)c1ccc(C2C(C)(C)OC(N[C@@H](C)c3ccccc3F)=NS2(=O)=O)cc1` (stereo partly drawn) [Example 163, 1-(4-{2-[(S)-1-(2-fluorophenyl)-ethylamino]-6,6-dimethyl-4,4-dioxo-5,6-dihydro-4H-4lambda6-[1,4,3]oxathiazin-5-yl}-phenyl)-ethanone] registered a half-inhibitory concentration (IC50) of 15 nM.
As for `CC1(C)OC(N[C@@H](CCO)c2ccccc2F)=NS(=O)(=O)C1c1ccc(-c2ccc(C(N)=O)cc2)cc1` (stereo partly drawn) [Example 120, 4′-{2-[(S)-1-(2-fluorophenyl)-3-hydroxy-propylamino]-6,6-dimethyl-4,4-dioxo-5,6-dihydro-4H-4lambda6-[1,4,3]oxathiazin-5-yl}-biphenyl-4-carboxylic acid amide], the concentration for half-maximal inhibition (IC50) was 6 nM.
In turn, `COc1ccc(C2C(C)(C)OC(N[C@@H](CCO)c3ccccc3)=NS2(=O)=O)cc1` (stereo partly drawn) [Example 6, (S)-3-[5-(4-Methoxy-phenyl)-6,6-dimethyl-4,4-dioxo-5,6-dihydro-4H-4lambda6-[1,4,3]oxathiazin-2-ylamino]-3-phenyl-propan-1-ol] displayed a half-maximal inhibitory concentration (IC50) of 29 nM.
To `CC1(C)OC(N[C@@H](CCO)c2ccccc2F)=NS(=O)(=O)C1c1ccc(N2CCN(C(C)(C)C)CC2)cc1` (stereo partly drawn) [Example 138, (S)-3-{5-[4-(4-tert-Butyl-piperazin-1-yl)-phenyl]-dimethyl-4,4-dioxo-5,6-dihydro-4H-4lambda6-[1,4,3]oxathiazin-2-ylamino}-3-(2-fluorophenyl)-propan-1-ol] belongs 61 nM.
As to `C[C@H](NC1=NS(=O)(=O)C(C)(c2ccccc2)C(C)(C)O1)c1ccccc1F` (stereo partly drawn) [Compound 56, [(S)-1-(2-Fluorophenyl)ethyl]-(5,6,6-trimethyl-4,4-dioxo-5-phenyl-5,6-dihydro-4H-4lambda6-[1,4,3]oxathiazin-2-yl)amine, stereomer 1], it took 8 nM to reach half-maximal inhibition (IC50).
Take `CC1(C)OC(N[C@@H](CCO)c2ccccc2F)=NS(=O)(=O)C1c1ccc(CCCN)cc1` (stereo partly drawn) [Example 106, (5)-3-{5-[4-(3-Amino-propyl)-phenyl]-6,6-dimethyl-4,4-dioxo-5,6-dihydro-4H-4lambda6-[1,4,3]oxathiazin-2-ylamino}-3-(2-fluorophenyl)-propan-1-ol]: the IC50 is 26 nM.
In turn, `CC1(C)OC(N[C@@H](CCO)c2cc(Cl)ccc2F)=NS(=O)(=O)C1c1ccc(-c2ccccc2)cc1` (stereo partly drawn) [Example 99, (S)-3-(5-Biphenyl-4-yl-6,6-dimethyl-4,4-dioxo-5,6-dihydro-4H-4lambda6-[1,4,3]oxathiazin-2-ylamino)-3-(5-chloro-2-fluorophenyl)-propan-1-ol] displayed an IC50 of 25 nM.
The same measure for `CC1(C)OC(N[C@@H](CCO)c2ccccc2F)=NS(=O)(=O)C1c1ccc(-c2ccccc2)cc1` (single isomer, unassigned) [Example 69]: 13 nM; for `C[C@H](NC1=NS(=O)(=O)C(c2ccc(C3CCNCC3)cc2)C(C)(C)O1)c1ccccc1F` (stereo partly drawn) [Example 158, [6,6-Dimethyl-4,4-dioxo-5-(4-piperidin-4-yl-phenyl)-5,6-dihydro-4H-4lambda6-[1,4,3]oxathiazin-2-yl]-[(S)-1-(2-fluorophenyl)-ethyl]-amin]: 38 nM.
In turn, `Cn1cc(-c2ccc(C3C(C)(C)OC(N[C@@H](CCO)c4ccccc4F)=NS3(=O)=O)cc2)cn1` (stereo partly drawn) [Example 124, (S)-3-{6,6-Dimethyl-5-[4-(1-methyl-1H-pyrazol-yl)-phenyl]-4,4-dioxo-5,6-dihydro-4H-4lambda6-[1,4,3]oxathiazin-2-ylamino}-3-(2-fluorophenyl)-propan-1-ol] displayed a half-inhibitory concentration (IC50) of 8 nM.
To `CC1(C)OC(N[C@@H](CCO)c2ccccc2F)=NS(=O)(=O)C1c1ccc(N2CCOCC2)cc1` (stereo partly drawn) [Example 107, (S)-3-[6,6-Dimethyl-5-(4-morpholin-4-yl-phenyl)-4,4-dioxo-5,6-dihydro-4H-4lambda6-[1,4,3]oxathiazin-2-ylamino]-3-(2-fluorophenyl)-propan-1-ol] belongs 33 nM.
